Holding throughout (test): relative viability (nuclei count vs DMSO), 5 days (fraction); higher = more cells survive
Compound in experiment [1]: COc1cc2nccc(Oc3ccc(NC(=O)C4(C(=O)Nc5ccc(F)cc5)CC4)cc3)c2cc1OC [Cabozantinib] + CC(C)C[C@H](NC(=O)[C@H](Cc1ccccc1)NC(=O)c1cnccn1)B(O)O [Bortezomib] (partner 0.002 µM)
The method in brief:
(§1)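 Dosing by pin tool came one day after lung cancer cell lines were seeded in 1536-well plates, using either one drug or a fixed anchor-drug dose plus five library-drug doses (not always all listed) in √10 steps. After 5 days, nuclei were counted on 4× images. Relative viability is treated-well nuclei count divided by vehicle-well nuclei count, and values are medians of duplicate plates.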

Compound in the experiment “Cabozantinib + Olaparib”: COc1cc2nccc(Oc3ccc(NC(=O)C4(C(=O)Nc5ccc(F)cc5)CC4)cc3)c2cc1OC [Cabozantinib] + O=C(c1cc(Cc2n[nH]c(=O)c3ccccc23)ccc1F)N1CCN(C(=O)C2CC2)CC1 [Olaparib] (partner 8 µM)
The gist of the method: as §1

Compound in the experiment “Kobe2602 + Decitabine”: C1=CC(=CC=C1NC(=S)NNC2=C(C=C(C=C2[N+](=O)[O-])C(F)(F)F)[N+](=O)[O-])F [Kobe2602] + Nc1ncn([C@H]2C[C@H](O)[C@@H](CO)O2)c(=O)n1 [Decitabine] (partner 2 µM)
The gist of the method:
as §1

Compound in the experiment “Cabozantinib + Dasatinib”: COc1cc2nccc(Oc3ccc(NC(=O)C4(C(=O)Nc5ccc(F)cc5)CC4)cc3)c2cc1OC [Cabozantinib] + Cc1nc(Nc2ncc(C(=O)Nc3c(C)cccc3Cl)s2)cc(N2CCN(CCO)CC2)n1 [Dasatinib] (partner 0.075 µM)
The method in brief:
as §1

For UMC-11, the relative viability in experiment [1] (first compound 0.02 µM) was 0.669; in experiment [1] (first compound 0.06325 µM), 0.921; in experiment [1] (first compound 0.2 µM) it was 0.709; in experiment [1] (first compound 0.6325 µM), 0.649; in experiment [1] (first compound 2 µM), 0.815; with Cabozantinib + Olaparib (first compound 0.02 µM), 0.399. Also, the relative viability is 0.304 with Cabozantinib + Olaparib (first compound 0.06325 µM); 0.502 with Cabozantinib + Olaparib (first compound 0.2 µM); 0.312 with Cabozantinib + Olaparib (first compound 0.6325 µM); 0.391 in the experiment with Cabozantinib + Olaparib (first compound 2 µM); 0.564 with Kobe2602 + Decitabine (first compound 0.2 µM); 0.622 in the experiment with Kobe2602 + Decitabine (first compound 0.6325 µM). In addition, the relative viability is 0.675 in the experiment with Kobe2602 + Decitabine (first compound 2 µM); 0.466 with Kobe2602 + Decitabine (first compound 6.325 µM); 0.652 in the experiment with Kobe2602 + Decitabine (first compound 20 µM); 0.494 in the experiment with Cabozantinib + Dasatinib (first compound 0.02 µM); 0.492 with Cabozantinib + Dasatinib (first compound 0.06325 µM); 0.453 with Cabozantinib + Dasatinib (first compound 0.2 µM). For the same cell line, the relative viability with Cabozantinib + Dasatinib (first compound 0.6325 µM) is 0.493; with Cabozantinib + Dasatinib (first compound 2 µM), 0.452.

The values are drawn from the supplement of paper PMC10307832.
